Reference: PubChem BioAssay AID1645866 (Buhrlage Lab, Dana-Farber Cancer Institute and Novartis …, 2021)
The source made the active and inactive calls.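 The calls were made as follows: active = in confirmatory dose-response testing, peak deubiquitinase inhibition of 30% or more; inactive = the rest.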

Molecular target: Ubiquitin carboxyl-terminal hydrolase 28 (Homo sapiens) (UniProt Q96RU2)
Assay: Concentration-response biochemical assay confirming initial hits as inhibitors of ubiquitin-specific protease 28 (AID 1645866)
Settings: purified USP28, ubiquitin-rhodamine fluorescence, 30 min

Ubiquitin carboxyl-terminal hydrolase 28 (Homo sapiens), sequence (Q96RU2 whole entry, looked up): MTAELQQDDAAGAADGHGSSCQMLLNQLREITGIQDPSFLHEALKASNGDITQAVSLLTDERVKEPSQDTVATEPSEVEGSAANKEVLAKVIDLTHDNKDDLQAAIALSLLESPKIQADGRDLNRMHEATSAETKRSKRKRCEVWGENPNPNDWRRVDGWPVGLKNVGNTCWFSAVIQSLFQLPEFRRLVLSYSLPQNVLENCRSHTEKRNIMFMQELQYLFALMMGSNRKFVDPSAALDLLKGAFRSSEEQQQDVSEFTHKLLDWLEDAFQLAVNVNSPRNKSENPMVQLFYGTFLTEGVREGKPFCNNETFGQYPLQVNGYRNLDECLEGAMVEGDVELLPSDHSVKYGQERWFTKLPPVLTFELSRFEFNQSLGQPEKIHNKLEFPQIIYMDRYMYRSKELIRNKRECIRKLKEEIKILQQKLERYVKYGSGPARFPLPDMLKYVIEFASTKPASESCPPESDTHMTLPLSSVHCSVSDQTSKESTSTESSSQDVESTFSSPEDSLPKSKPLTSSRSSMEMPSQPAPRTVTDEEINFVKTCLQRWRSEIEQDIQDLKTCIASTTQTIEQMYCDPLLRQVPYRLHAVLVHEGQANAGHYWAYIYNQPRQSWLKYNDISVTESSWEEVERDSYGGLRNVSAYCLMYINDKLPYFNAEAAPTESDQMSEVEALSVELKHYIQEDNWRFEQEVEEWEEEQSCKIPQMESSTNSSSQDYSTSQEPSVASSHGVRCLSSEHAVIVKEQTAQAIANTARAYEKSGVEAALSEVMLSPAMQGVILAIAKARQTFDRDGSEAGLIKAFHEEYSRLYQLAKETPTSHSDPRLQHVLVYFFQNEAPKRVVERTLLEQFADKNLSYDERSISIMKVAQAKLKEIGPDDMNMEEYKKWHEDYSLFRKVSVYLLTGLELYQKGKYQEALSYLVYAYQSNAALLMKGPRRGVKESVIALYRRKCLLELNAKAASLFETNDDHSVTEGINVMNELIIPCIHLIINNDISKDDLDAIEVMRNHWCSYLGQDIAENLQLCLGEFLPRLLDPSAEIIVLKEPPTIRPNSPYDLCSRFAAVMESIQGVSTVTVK

IC50 | Compound
3.72 µM | O=[N+]([O-])c1cccc(-c2noc(CSc3ccccc3)n2)c1
> 50 µM (inactive) | O=C(NC1CCS(=O)(=O)C1)c1ccc(N2CCC(Cc3ccccc3)CC2)nn1 (stereo not given)
23 µM | CCOc1ccc(C(=O)Cn2c(=O)n(CC3CCCO3)c(=O)c3cc(OC)c(OC)cc32)cc1Cl (stereo not given)
21.7 µM | COc1ccc(NC(=O)Nc2cccc(-c3nnc(-c4ccccc4)o3)c2)cc1OC
> 50 µM (inactive) | N[C@@H](Cc1ccccc1)C(=O)N1CCC2(CC1)CN(C(=O)c1ccc(Cl)cc1)CCO2
> 50 µM (inactive) | O=C(Nc1ccccc1)c1cn(-c2cc(N3CCCC3)ncn2)cn1
11.2 µM | COc1cc(Cl)ccc1C(=O)Nc1cccc(-n2cnnn2)c1C
> 50 µM (inactive) | FC(F)(F)c1cccc(N2CCN(c3nc4ccccc4n4nnnc34)CC2)c1
> 50 µM (inactive) | c1ccc(CN2CCN(c3nc4ccccc4n4nnnc34)CC2)cc1
> 50 µM (inactive) | Cc1c(C(=O)c2ccccc2)c2ccccn2c1CCc1ccccn1
13.3 µM | Cc1ccccc1NC(=O)c1ccn(COc2ccc(Cl)cc2)n1
36.1 µM | O=C(Nc1cccc2ccccc12)N1CCC(c2nc3c(nnn3Cc3ccc(F)cc3)c(=O)[nH]2)CC1
6.5 µM | O=C(CSc1nc2cc(C(F)(F)F)ccc2s1)NCC(=O)c1ccccc1
1.93 µM | O=C(Nc1nc2ccccc2s1)c1ccc2c(c1)C(=O)N(Cc1cccnc1)C2=O
1.8 µM | CCCn1c(=O)c(-c2ccc(C(=O)NCc3ccc(OC)cc3)cc2)nc2cccnc21
15.1 µM | CCc1cccc2c(C(=O)COc3ccc(C#N)cc3)c[nH]c12
16.7 µM | O=C(O)CCCCCN1C(=O)CC(c2ccc(Cl)cc2)CC1=O
12.2 µM | O=C(COc1ccc(S(=O)(=O)N2CCOCC2)cc1)N1CCC(Cc2ccccc2)CC1
5.34 µM | Cc1c(-c2nsc(NC(=O)c3ccc(Cl)cc3)n2)nnn1-c1ccccc1F

IC50 | Compound
28.8 µM | CCCc1cc(=O)n2[nH]c(COc3ccccc3)c(-c3ccccc3)c2n1
16.7 µM | Cc1c(C)n(-c2ccccc2)c2ncn(CC(=O)NC(C)c3ccccc3)c(=O)c12 (stereo not given)
26.4 µM | Nc1ncnc2c1ncn2[C@@H]1O[C@H](CO)C[C@@H]1O
38 µM | COC1/C=C/OC2(C)Oc3c(C)c(O)c4c(c3C2=O)C(=O)C=C(NC(=O)/C(C)=C\C=C\C(C)C(O)C(C)C(O)C(C)C(OC(C)=O)C1C)C4=O (stereo not given)
> 50 µM (inactive) | COc1c2nc3ccccc3oc-2cc(=O)c1OC
3.13 µM | CC(=O)c1cccc(NC(=O)c2ccc(-c3csc(C)n3)cc2)c1
22.9 µM | CC(=O)N1CCOc2cc(S(=O)(=O)N3CCCC3c3cc(C)no3)ccc21 (stereo not given)
> 50 µM (inactive) | COc1ccc(C(=O)NCC(c2ccc3c(c2)CCCN3C)N2CCCC2)cc1 (stereo not given)
> 50 µM (inactive) | CCN(CC)c1nc(F)c2c(c1F)S(=O)(=O)CCN2Cc1ccccc1
46.6 µM | O=C(Cn1c(NCc2ccccc2)nc2ccccc21)NCC(F)(F)F
> 50 µM (inactive) | CC1CCc2c(sc3nc(CC#N)[nH]c(=O)c23)C1 (stereo not given)
27.4 µM | COc1cccc(CNC(=O)c2ccc(CSc3nc4ccncc4n3Cc3ccccc3F)cc2)c1
4.52 µM | O=C(Cn1c(=O)n(CC(=O)NC2CCCC2)c(=O)c2ccccc21)Nc1cc(Cl)ccc1Cl
20.3 µM | O=C(Nc1cccc(C(F)(F)F)c1)N1CCCn2c(nc3ccccc32)C1
10.9 µM | O=C(Nc1cc(-c2cccnc2)no1)c1ccc(F)c(F)c1
27.4 µM | COc1cccc(-n2ccc(=O)c(-c3nc(-c4ccccc4Cl)no3)n2)c1
4.74 µM | Cc1ccc(-c2nc(NC(=O)COc3ccc(Cl)cc3)no2)cc1
43.8 µM | Cc1nc(Nc2ncc(C)s2)cc(C2CN(C(=O)Cc3ccccc3)CCO2)n1 (stereo not given)
17.4 µM | COc1ccc(C(=O)Nc2ccc(S(=O)(=O)N3CCCCC3)cc2)cc1

Compound | IC50
COC(=O)[C@]1(O)O[C@@]2(C(=O)OC)c3c(oc4cc(C)cc(O)c4c3=O)[C@H]3c4c(oc5cc(C)cc(O)c5c4=O)C[C@H]1[C@H]32 | > 50 µM (inactive)
CCOC(=O)[C@@H]1[C@@H](c2ccccc2)CN2CCN(C(=O)c3cnccn3)C[C@H]12 | > 50 µM (inactive)
